# Assay results reported in patent US7790887B2, “Macrolide compound in solid form, process for preparation thereof, and pharmaceutical composition containing the same” (Eisai R&D Management Co., Ltd., priority 2007, dated 2010).
# Assay: Comparison of solubility: time required for complete dissolution of solid forms in pH 5.0 buffer
# Format: physicochemical
# Conditions: 25 mM potassium acetate buffer solution (pH 5.0), room temperature, concentration of 5 mg/mL, shaken at about 100 rpm
# Protocol: (Comparison of Solubility)
# Next, the length of time required to dissolve about […] of the solid forms of formula (I) compound at room temperature in a pH 5.0 acetic acid buffer solution were measured.
# After adding, at room temperature, a 25 mM potassium acetate buffer solution (pH 5.0) to, respectively, 10 mg of the white crystals prepared in Example 7, 10 mg of the amorphous powder prepared in Example 10, and 5 mg of the amorphous mass prepared in Example 11 in order to make a concentration of 5 mg/mL in each sample, the length of time required for complete dissolution under shaken at about 100 rpm was measured.
row,SMILES,time required for dissolution
1,"CCC(O)C(C)C1OC1CC(C)(O)/C=C/C=C(\C)C1OC(=O)CC(O)CCC(C)(O)C(OC(=O)N2CCN(C3CCCCCC3)CC2)/C=C/C1C (stereo not drawn) [Amorphous mass, (8E,12E,14E)-7-{(4-cycloheptylpiperazin-1-yl)carbonyl}oxy-3,6,16,21-tetrahydroxy-6,10,12,16,20-pentamethyl-18,19-epoxytricosa-8,12,14-trien-11-olide]",about 215 seconds
2,"CCC(O)C(C)C1OC1CC(C)(O)/C=C/C=C(\C)C1OC(=O)CC(O)CCC(C)(O)C(OC(=O)N2CCN(C3CCCCCC3)CC2)/C=C/C1C (stereo not drawn) [Amorphous powder, (8E,12E,14E)-7-{(4-cycloheptylpiperazin-1-yl)carbonyl}oxy-3,6,16,21-tetrahydroxy-6,10,12,16,20-pentamethyl-18,19-epoxytricosa-8,12,14-trien-11-olide]",about 10 seconds
3,"CCC(O)C(C)C1OC1CC(C)(O)/C=C/C=C(\C)C1OC(=O)CC(O)CCC(C)(O)C(OC(=O)N2CCN(C3CCCCCC3)CC2)/C=C/C1C (stereo not drawn) [Crystals, (8E,12E,14E)-7-{(4-cycloheptylpiperazin-1-yl)carbonyl}oxy-3,6,16,21-tetrahydroxy-6,10,12,16,20-pentamethyl-18,19-epoxytricosa-8,12,14-trien-11-olide]",about 32 seconds
